Measurements as given in article PMC4315423 (Journal of Medicinal Chemistry, 2014).
≈ marks a conversion by molar mass, not a printed value.

Legend:
[1] = in vivo pharmacokinetics, plasma and brain, single ip dose in male C57BL/6 mice; set-up: species or system mouse; settings: ip 30 mg/kg
[2] = aqueous kinetic solubility; type: physicochemical; settings: PBS aqueous buffer

time to reach brain Cmax ([1]; brain, C57BL/6 mice): ≤ 15 min | behavioural observation after dosing ([1]; male C57BL/6 mice, at 5 min after dosing, lasted for about 2 h): appeared less active | solubility kinetic [2]: 46.5 µg/mL (≈ 113 µM)
SMILES: CN1C(=O)c2ccccc2[S@+]([O-])c2ccc(C(=O)NCCc3cccs3)cc21 [compound 65, 10-Methyl-11-oxo-N-(2-(thiophen-2-yl)ethyl)-10,11-dihydrodibenzo[b,f][1,4]thiazepine-8-carboxamide 5-(S)-Oxide]
